Assay results published in patent publication US9944603B2, “Compounds and methods for the treatment of cystic fibrosis” (Flatley Discovery Lab, LLC, priority 2013, dated 2018).

Biological target: T1, human F508del CFTR (Homo sapiens, UniProt P13569, DEL508-508)
T1 construct: expressed in transfected cells
Assay: CFTR-YFP Assay, CFTR Corrector Protocol (YFP flux assay)
Assay type: cell-based
Conditions: for Emax: normalized to the positive control, read-out: EMAX (% Efficacy, EMAX normalized to the positive control)

T1 sequence (P13569 with tags, fused parts or gaps DEL508-508): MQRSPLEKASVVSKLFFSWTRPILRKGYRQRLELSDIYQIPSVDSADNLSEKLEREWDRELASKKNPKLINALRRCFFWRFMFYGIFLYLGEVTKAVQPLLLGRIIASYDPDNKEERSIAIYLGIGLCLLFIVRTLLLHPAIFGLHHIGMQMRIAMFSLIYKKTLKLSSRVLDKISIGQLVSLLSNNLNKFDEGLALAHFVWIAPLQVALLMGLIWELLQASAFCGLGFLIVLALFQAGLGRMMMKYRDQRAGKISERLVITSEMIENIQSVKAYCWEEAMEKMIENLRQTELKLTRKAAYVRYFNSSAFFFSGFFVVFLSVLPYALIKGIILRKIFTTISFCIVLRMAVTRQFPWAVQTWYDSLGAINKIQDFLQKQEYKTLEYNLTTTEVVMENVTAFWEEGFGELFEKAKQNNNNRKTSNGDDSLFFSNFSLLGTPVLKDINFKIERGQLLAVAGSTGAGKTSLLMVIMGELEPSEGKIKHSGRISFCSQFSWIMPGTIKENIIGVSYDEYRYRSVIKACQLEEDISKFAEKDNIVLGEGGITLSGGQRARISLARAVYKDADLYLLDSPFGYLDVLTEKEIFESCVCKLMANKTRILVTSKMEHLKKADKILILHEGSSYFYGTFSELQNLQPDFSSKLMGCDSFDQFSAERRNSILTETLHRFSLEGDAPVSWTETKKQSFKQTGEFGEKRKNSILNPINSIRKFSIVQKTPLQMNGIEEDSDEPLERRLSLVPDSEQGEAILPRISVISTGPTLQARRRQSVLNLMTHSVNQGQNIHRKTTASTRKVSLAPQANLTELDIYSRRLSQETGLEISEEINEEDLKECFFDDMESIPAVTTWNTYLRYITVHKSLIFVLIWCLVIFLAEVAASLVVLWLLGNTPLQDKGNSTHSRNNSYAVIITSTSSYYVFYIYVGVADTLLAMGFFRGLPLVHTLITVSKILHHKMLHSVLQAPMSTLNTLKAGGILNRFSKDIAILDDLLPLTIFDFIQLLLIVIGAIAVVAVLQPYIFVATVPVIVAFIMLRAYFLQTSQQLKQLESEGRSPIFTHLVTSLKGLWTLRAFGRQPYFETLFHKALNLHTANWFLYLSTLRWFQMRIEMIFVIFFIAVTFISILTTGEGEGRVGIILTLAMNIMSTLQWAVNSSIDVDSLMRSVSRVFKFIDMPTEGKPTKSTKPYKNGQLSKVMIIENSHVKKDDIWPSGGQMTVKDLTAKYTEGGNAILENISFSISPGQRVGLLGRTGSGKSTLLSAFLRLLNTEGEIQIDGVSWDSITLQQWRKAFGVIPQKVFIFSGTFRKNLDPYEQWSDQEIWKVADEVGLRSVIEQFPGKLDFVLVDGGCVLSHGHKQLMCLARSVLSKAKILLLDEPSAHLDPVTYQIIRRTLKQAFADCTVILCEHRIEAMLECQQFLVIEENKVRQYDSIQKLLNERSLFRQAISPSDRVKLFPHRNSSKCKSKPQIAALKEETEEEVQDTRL

SMILES	EC50	Emax
CCc1ccc(S(=O)(=O)N2CCC(N(C(=S)c3ccccc3Cl)c3ccccc3)CC2)cc1 [Example 213]	10 to 20 µM	10 to 30%
CCc1ccc(S(=O)(=O)N2CCC(N(C(=O)c3ccccc3Cl)c3ccc(Br)cc3)CC2)cc1 [Example 214]	< 10 µM	10 to 30%
CCc1ccc(S(=O)(=O)N2CCC(N(C(=O)c3ccccc3Cl)c3ccc(I)cc3)CC2)cc1 [Example 216]	< 10 µM	10 to 30%
CCc1ccc(S(=O)(=O)N2CCC(N(C(=O)c3ccccc3Cl)c3cccc(Cl)c3)CC2)cc1 [Example 217]	< 10 µM	10 to 30%
CCc1ccc(S(=O)(=O)N2CCC(N(c3ccc(OC)cn3)S(=O)(=O)c3ccccc3Cl)CC2)cc1 [Example 218]	< 10 µM	10 to 30%
COc1ccc(N(C2CCN(S(=O)(=O)c3ccc4c(c3)OC(F)(F)O4)CC2)S(=O)(=O)c2ccccc2Cl)nc1 [Example 219]	< 10 µM	10 to 30%
Cc1cccc(N(C2CCN(S(=O)(=O)c3ccc4nc(C)oc4c3)CC2)S(=O)(=O)c2ccccc2Cl)n1 [Example 220, 2-Chloro-N-(1-((2-methylbenzo[d]oxazol-6-yl)sulfonyl)piperidin-4-yl)-N-(6-methylpyridin-2-yl)benzenesulfonamide]	< 10 µM	30 to 80%
CCc1ccc(S(=O)(=O)N2CCC(N(c3cccc(OC)n3)S(=O)(=O)c3ccccc3Cl)CC2)cc1 [Example 222, 2-Chloro-N-(1-((4-ethylphenyl)sulfonyl)piperidin-4-yl)-N-(6-methoxypyridin-2-yl)benzenesulfonamide]	< 10 µM	10 to 30%
Cc1ccc(N(C2CCN(S(=O)(=O)c3ccc4nc(C)oc4c3)CC2)S(=O)(=O)c2ccccc2Cl)nc1 [Example 223]	10 to 20 µM	10 to 30%
CCc1ccc(S(=O)(=O)N2CCC(N(c3ccccn3)S(=O)(=O)c3ccccc3C)CC2)cc1 [Example 225]	< 10 µM	10 to 30%
CCc1ccc(S(=O)(=O)N2CCC(N(c3ccccn3)S(=O)(=O)c3cccc(C)c3)CC2)cc1 [Example 226]	< 10 µM	10 to 30%
CCc1ccc(S(=O)(=O)N2CCC(N(c3ccc(C)cn3)S(=O)(=O)c3ccccc3Cl)CC2)cc1 [Example 227]	< 10 µM	10 to 30%
COc1ccc(N(C2CCN(S(=O)(=O)c3ccc4nc(C)oc4c3)CC2)S(=O)(=O)c2ccccc2Cl)nc1 [Example 228]	10 to 20 µM	10 to 30%
CCc1ccc(S(=O)(=O)N2CCC(N(c3ccccn3)S(=O)(=O)c3ccc(C)cc3)CC2)cc1 [Example 229]	< 10 µM	10 to 30%
CCc1ccc(S(=O)(=O)N2CCC(N(c3ccc(Cl)cn3)S(=O)(=O)c3ccccc3Cl)CC2)cc1 [Example 230]	< 10 µM	30 to 80%
CCc1ccc(S(=O)(=O)N2CCC(N(c3nccs3)S(=O)(=O)c3ccccc3Cl)CC2)cc1 [Example 231]	< 10 µM	30 to 80%
CCc1ccc(S(=O)(=O)N2CCC(N(c3cccc(Cl)n3)S(=O)(=O)c3ccccc3Cl)CC2)cc1 [Example 232]	< 10 µM	10 to 30%

SMILES	EC50	Emax
CCc1ccc(S(=O)(=O)N2CCC(N(c3cc(Cl)ccn3)S(=O)(=O)c3ccccc3Cl)CC2)cc1 [Example 233]	< 10 µM	30 to 80%
CCc1ccc(S(=O)(=O)N2CCC(N(c3ccccn3)S(=O)(=O)c3cccc(Cl)c3)CC2)cc1 [Example 234]	< 10 µM	30 to 80%
CCc1ccc(S(=O)(=O)N2CCC(N(c3ccccn3)S(=O)(=O)c3ccc(Cl)cc3)CC2)cc1 [Example 235]	< 10 µM	30 to 80%
CCc1ccc(S(=O)(=O)N2CCC(N(c3ccc(OC)cc3)S(=O)(=O)c3ccccc3Cl)CC2)cc1 [Example 236]	< 10 µM	10 to 30%
CCc1ccc(S(=O)(=O)N2CCC(N(c3ccc(C)cc3)S(=O)(=O)c3ccccc3Cl)CC2)cc1 [Example 237]	< 10 µM	10 to 30%
CCc1ccc(S(=O)(=O)N2CCC(N(c3cccc(C)c3)S(=O)(=O)c3ccccc3Cl)CC2)cc1 [Example 238]	< 10 µM	30 to 80%
CCc1ccc(S(=O)(=O)N2CCC(N(c3ccccc3OC)S(=O)(=O)c3ccccc3Cl)CC2)cc1 [Example 239]	< 10 µM	10 to 30%
CCc1ccc(S(=O)(=O)N2CCC(N(c3cc(C)ccn3)S(=O)(=O)c3ccccc3Cl)CC2)cc1 [Example 240]	< 10 µM	10 to 30%
CCc1ccc(S(=O)(=O)N2CCC(N(c3ccc(F)cc3)S(=O)(=O)c3ccccc3Cl)CC2)cc1 [Example 241]	< 10 µM	10 to 30%
CCc1ccc(S(=O)(=O)N2CCC(N(c3ncccn3)S(=O)(=O)c3ccccc3Cl)CC2)cc1 [Example 242]	< 10 µM	10 to 30%
CCc1ccc(S(=O)(=O)N2CCC(N(c3ccc(C(F)(F)F)cn3)S(=O)(=O)c3ccccc3Cl)CC2)cc1 [Example 243]	10 to 20 µM	10 to 30%
CCc1ccc(S(=O)(=O)N2CCC(N(c3cc(OC)ccn3)S(=O)(=O)c3ccccc3Cl)CC2)cc1 [Example 244]	10 to 20 µM	30 to 80%
CCc1ccc(S(=O)(=O)N2CCC(N(c3cnc(OC)cn3)S(=O)(=O)c3ccccc3Cl)CC2)cc1 [Example 245]	< 10 µM	30 to 80%
CCc1ccc(S(=O)(=O)N2CCC(N(c3cccc(OC)c3)S(=O)(=O)c3ccccc3Cl)CC2)cc1 [Example 246]	10 to 20 µM	30 to 80%
CCc1ccc(S(=O)(=O)N2CCC(N(c3ncccc3OC)S(=O)(=O)c3ccccc3Cl)CC2)cc1 [Example 247]	< 10 µM	30 to 80%
CCc1ccc(S(=O)(=O)N2CCC(N(c3cnccn3)S(=O)(=O)c3ccccc3Cl)CC2)cc1 [Example 248]	< 10 µM	30 to 80%
CCc1ccc(S(=O)(=O)N2CCC(N(c3ccncn3)S(=O)(=O)c3ccccc3Cl)CC2)cc1 [Example 249]	< 10 µM	30 to 80%
